Patent US7468385B2, “Triazoles as oxytocin antagonists” (Laboratoires Serono SA, priority 2001, dated 2008)

Experiments:
[1] = target: T1, human Oxytocin (hOT) receptor (Homo sapiens, UniProt P30559); assay: In vitro competition binding assay on hOT receptor with scintillation proximity assay ([125I]-OVTA); details: inhibition of 125I-OVTA binding; membranes from HEK293EBNA cells expressing the hOT receptor; read-out: Binding Affinity hOT-R (Ki)
T1 construct: expressed in transfected cells; host or cells: HEK293EBNA (membranes)
T1 sequence (P30559 1-389): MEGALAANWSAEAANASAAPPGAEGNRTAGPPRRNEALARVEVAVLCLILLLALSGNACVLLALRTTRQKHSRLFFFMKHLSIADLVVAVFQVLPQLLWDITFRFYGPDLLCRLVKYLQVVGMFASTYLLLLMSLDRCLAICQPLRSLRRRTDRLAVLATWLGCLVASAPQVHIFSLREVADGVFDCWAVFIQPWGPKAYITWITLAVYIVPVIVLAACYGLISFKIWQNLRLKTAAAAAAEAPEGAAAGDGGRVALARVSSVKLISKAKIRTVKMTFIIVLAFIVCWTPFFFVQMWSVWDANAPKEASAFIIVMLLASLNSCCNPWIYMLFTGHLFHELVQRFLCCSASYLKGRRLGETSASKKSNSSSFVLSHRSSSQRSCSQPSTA
Experimental: a) In vitro Competition Binding Assay on hOT Receptor with Scintillation Proximity Assay (18).
This assay allows to determine the affinity of the test compounds for the human Oxytocin (hOT) receptor. Membranes from HEK293EBNA (cells expressing the hOT receptor) were suspended in buffer containing 50 mM Tris-HCl, pH 7.4, 5 mM MgCl2 and 0.1% BSA (w/v). The membranes ([…]) were mixed with 0.1 mg SPA bead coated with wheat-germ aglutinin (WGA-PVT-Polyethylene Imine beads from Amersham) and […] of the radiolabelled [^125I]-OVTA (OVTA being Omithin Vasoactive, an analogue of OT for competitive binding experiments). Non-specific binding was determined in the presence of 1 μM Oxytocin. The total assay volume was 100 μL. The plates (Corning® NBS plate) were incubated at room temperature for 30 min and counted on a Mibrobeta® plate scintillation counter. Competitive binding was performed in presence of compounds of formula (1) at the following concentrations: 30 μM, 10 μM, 1 μM, 300 nM, 100 nM 10 nM, 1 nM, 100 pM, 10 pM. The competitive binding data were analysed using the iterative, nonlinear, curve-fitting program, “Prism” (GraphPad Software, Inc).
The ability of triazole derivatives of formula (I) to inhibit the binding of ^125I-OVTA to the OT-receptor was assessed using the above described in vitro biological assay. Representative values for some example compounds are given in Table 3 where the binding affinity of the compounds is expressed by the inhibition constant (Ki; μM). From these values, it can be derived that said test compounds according to formula I do show a significant binding to the oxytocin receptor.

hOT receptor = target: T2, hOT receptor (Homo sapiens, UniProt P30559); assay: Inhibition of oxytocin mediated Ca2+-mobilization by FLIPR in HEK293EBNA cells expressing the hOT receptor; assay type: cell-based; details: OT 40 nM, fluo-4 FLIPR, read-out: Inhibition of Ca2+ mobilisation, hOT-R IC50
T2 construct: expressed in transfected cells; host or cells: HEK293EBNA
T2 sequence (P30559 1-389): T1 sequence (P30559 1-389)
Description: c) Functional Assay No. 1: Inhibition of Oxytocin Mediated Ca^2+-mobilization by FLIPR® (Fluorimetric Imaging Plate Reader)
The action of OT on the OT-receptor triggers a complex cascade of events in the cell which leads to an increase in the intra-cytoplasmic Ca^2+ concentration. This increase in Ca^2+ concentration results from both calcium release from the sarcoplasmic reticulum (calcium stores) into the cytoplasm and from calcium influx from the extracellular space through Ca^2+ channels. This Ca^2+ mobilization into the cytoplasm triggers the contractile machinery of the myometrial cells which leads to uterine contractions (4 and 19).
This assay allows the measurement of the inhibition of OT/OT-R mediated calcium mobilization by test compounds of formula (1).
FLIPR® is a fluorimetric imaging device using a laser (Argon-ion laser) for simultaneous illumination and reading (cooled CCD camera) of each well of a 96-well-plate, thus enabling rapid measurements on a large number of samples.
Preparing the plates: FLIPR-plates were pre-coated with PLL (Poly-L-Lysine) 10 μg/ml+0.1% gelatine to attach HEK293EBNA cells (Human Embryonic Kidney cells expressing the hOT receptor) and incubated for 30 min up to 2 days at 37° C. The cells were plated out into 96-well-plates (60000 cells/well).
Labelling with fluo-4: 50 μg of fluo-4 (Ca2+ sensitive fluorescent dye) were dissolved in 20 μl pluronic acid (20% in DMSO). The dissolved fluo-4 was then diluted in 10 ml DMEM ([…])-F12 culture medium. […]
The relative fluorescence of Fluo (λex=488 nm, λem=590 nm) is then measured by the FLIPR in presence or absence of compounds of formula (I). The fluorescence of the marker being sensitive to the amount of Ca^2+, the Ca^2+ movements can be detected. Then, it can be determined the ability of compounds of formula (I) to antagonize the oxytocin-induced intracellular Ca^2+-mobilization mediated by the oxytocin receptor.
The activities of the triazole derivatives according to formula I were assessed using the above described in vitro biological assay. […]

[2] = test system: oxytocin-induced uterine contractions; assay: In vivo model for inhibition of oxytocin-induced uterine contractions; set-up: species or system rat; details: dose 10 mg/kg, anaesthetised DES-treated non-pregnant female rats
Experimental: f) In vivo Model for Inhibition of Uterine Contractions
The assay evaluates the biological effect of tested compounds in an in vivo model of preterm labor, premature birth.
Non-pregnant Charles River CD (SD) BR female rats (9-10 weeks old, 200-250 g) were treated at 18 and 24 hours before the experiment with 250 μg/kg, i.p. diethylstilbestrol (DES). For the assay, the animal was anaesthetised with urethane (1.75 g/kg, i.p.) and placed on a homeothermic operating table. The trachea was isolated and cannulated with a suitable polyethylene (PE) tubing. A midline incision at the hypogastrium level was made and one uterine horn exposed, its cephalic end cannulated with a PE240 tubing and, after filling the internal cavity with 0.2 ml of sterile physiological saline, connected to a “Gemini” amplifying/recording system via a P23ID Gould Statham pressure transducer. […]
The contractile response of the uterus to oxytocin was quantified by measuring the intra-uterine pressure and the number of contractions. The effect of the reference and test compounds was evaluated by comparing pre- and post-treatment pressure values. […]
The activities of the triazole derivatives claimed in the Formula I can be assessed using the above described in vivo biological assay. […]

Compound | Ki [1] | IC50 (hOT receptor) | % Reduction of Uterine Contraction [2]
CCCCNC(=O)CCc1nnc(SCc2cccc(Cl)c2)n1-c1cccc(Cl)c1 [Example 15, N-butyl-3-[5-[(3-chlorobenzyl)sulfanyl]-4-(3-chlorophenyl)-4H-1,2,4-triazol-3-yl]propanamide] | 245 nM | – | –
COc1ccccc1CNC(=O)CCCCc1nnc(SCc2cccc(Cl)c2)n1-c1ccccc1 [Example 185, 5-{5-[(3-chlorobenzyl)sulfanyl]-4-phenyl-4H-1,2,4-triazol-3-yl}-N-(2-methoxybenzyl)pentanamide] | 603 nM | 58 nM | –
COc1ccccc1CNC(=O)CCc1nnc(SCc2cccc(C)c2)n1-c1cccc(Cl)c1 [Example 3, 3-{4-(3-chlorophenyl)-5-[(3-methylbenzyl)sulfanyl]-4H-1,2,4-triazol-3-yl}-N-(2-methoxybenzyl)propanamide] | 134 nM | – | –
COCCCn1c(CCC(=O)NCc2ccccc2OC)nnc1SCc1cccc(Cl)c1 [Example 4, 3-[5-[(3-chlorobenzyl)sulfanyl]-4-(3-methoxypropyl)-4H-1,2,4-triazol-3-yl]-N-(2-methoxybenzyl)propanamide] | 326 nM | – | –
COc1ccccc1CNC(=O)CCc1nnc(SCc2ccccc2)n1-c1cccc(Cl)c1 [Example 12, 3-[5-(benzylsulfanyl)-4-(3-chlorophenyl)-4H-1,2,4-triazol-3-yl]-N-(2-methoxybenzyl)propanamide] | 439 nM | – | –
COc1ccccc1CNC(=O)CCCCc1nnc(SCc2cccc(C)c2)n1CCc1ccccc1 [Example 189, N-(2-methoxybenzyl)-5-[5-[(3-methylbenzyl)sulfanyl]-4-(2-phenylethyl)-4H-1,2,4-triazol-3-yl]pentanamide] | 515 nM | – | –
COc1ccccc1CNC(=O)CCc1nnc(SCc2cccc(F)c2)n1-c1ccc(C)cc1 [Example 5, 3-[5-[(3-fluorobenzyl)sulfanyl]-4-(4-methylphenyl)-4H-1,2,4-triazol-3-yl]-N-(2-methoxybenzyl)propanamide] | 127 nM | – | –
COc1cccc(-n2c(CCC(=O)NCc3ccccc3OC)nnc2SCc2cccc(C)c2)c1 [Example 16, N-(2-methoxybenzyl)-3-{4-(3-methoxyphenyl)-5-[(3-methylbenzyl)sulfanyl]-4H-1,2,4-triazol-3-yl}propanamide] | 197 nM | – | –
COc1ccccc1CNC(=O)CCc1nnc(SCc2cccc(C)c2)n1Cc1ccc(C)cc1 [Example 6, N-(2-methoxybenzyl)-3-{4-(4-methylbenzyl)-5-[(3-methylbenzyl)sulfanyl]-4H-1,2,4-triazol-3-yl}propanamide] | 246 nM | – | –
COc1cccc(-n2c(CCC(=O)NCc3ccccc3OC)nnc2SCc2cccc(Cl)c2)c1 [Example 1, 3-[5-[(3-chlorobenzyl)sulfanyl]-4-(3-methoxyphenyl)-4H-1,2,4-triazol-3-yl]-N-(2-methoxybenzyl)propanamide] | 45 nM | 26 nM | 16.9 ± 5.1%
COc1ccccc1CNC(=O)CCc1nnc(SCc2ccc(F)cc2)n1-c1cccc(Cl)c1 [Example 11, 3-{4-(3-chlorophenyl)-5-[(4-fluorobenzyl)sulfanyl]-4H-1,2,4-triazol-3-yl}-N-(2-methoxybenzyl)propanamide] | 329 nM | – | –
COc1ccccc1CNC(=O)CCCc1nnc(SCc2cccc(Cl)c2)n1-c1ccccc1 [Example 137, 4-{5-[(3-chlorobenzyl)sulfanyl]-4-phenyl-4H-1,2,4-triazol-3-yl}-N-(2-methoxybenzyl)butanamide] | 2550 nM | 486 nM | –
COc1ccccc1CNC(=O)CCCCc1nnc(SCc2cccc(Cl)c2)n1-c1cccc(Cl)c1 [Example 184, 5-[5-[(3-chlorobenzyl)sulfanyl]-4-(3-chlorophenyl)-4H-1,2,4-triazol-3-yl]-N-(2-methoxybenzyl)pentanamide] | 481 nM | – | –
COc1ccccc1CNC(=O)CCc1nnc(SCc2ccccc2)n1-c1ccc(C)cc1 [Example 9, 3-[5-(benzylsulfanyl)-4-(4-methylphenyl)-4H-1,2,4-triazol-3-yl]-N-(2-methoxybenzyl)propanamide] | 205 nM | – | –
COc1ccccc1CNC(=O)CCc1nnc(SCc2cccc(Cl)c2)n1-c1cccc(C)c1 [Example 8, 3-[5-[(3-chlorobenzyl)sulfanyl]-4-(3-methylphenyl)-4H-1,2,4-triazol-3-yl]-N-(2-methoxybenzyl)propanamide] | 229 nM | – | –
